US5719121A, “Use of balhimycin as production promoter in animals, and production promoter compositions” (Hoechst Aktiengesellschaft, priority 1995, dated 1998)

Test system: broilers
Experiment: Feeding experiment with balhimycin in broilers (floor management, 35 days): growth and feed utilization
Assay type: in vivo
Conditions: for Feed Intake, compared to the control value of 100% / Feed Utilization, compared to the control value of 100% / Live weight End, compared to the control value of 100% / Live weight Gain, compared to the control value of 100%: control = 100; for Feed Intake / Feed Utilization kg of FI/kg of LW / Live weight End: group mean
Description: A feeding experiment with balhimycin was carried out in floor management using […] broilers (80 males and 80 females) which were divided into 5 groups:
1st group: untreated control
2nd group: balhimycin, 15 mg/kg of feed
3rd group: balhimycin, 30 mg/kg of feed
4th group: balhimycin, 45 mg/kg of feed
5th group: balhimycin, 60 mg/kg of feed
The feed had the following composition (Table 1):
The animals were kept in boxes of 40 animals each and were given the feed mixtures for 35 days in accordance with their group assignment.
In Table 2, the first number in each column directed to weight change, feed intake, and feed utilization, indicates the number average for the broilers in each group. The second number indicates the standard deviation of the data. The third number indicates the percent difference of each group as compared to the control value of 100%.
Different letters (a, b, ab, c) in the gain column denote significant differences between the groups (P<0.05). Values having the same letter or letters indicate that there is no significant difference between the groups.

## CNC(CC(C)C)C(=O)NC1C(=O)NC(CC(N)=O)C(=O)NC2C(=O)NC3C(=O)NC(C(=O)NC(C(=O)O)c4cc(O)cc(O)c4-c4cc3ccc4O)C(OC3C[C@](C)(N)C(=O)C(C)O3)c3ccc(c(Cl)c3)Oc3cc2cc(c3OC2O[C@H](CO)C(O)[C@H](O)C2O)Oc2ccc(cc2Cl)C1O (stereo partly shown) [Balhimycin]
Balhimycin 15 mg/kg of feed
  Feed Intake, compared to the control value of 100%: 99.9%
  Feed Utilization, compared to the control value of 100%: 92.0%
  Live weight End, compared to the control value of 100%: 108.1%
  Live weight Gain, compared to the control value of 100%: 108.4%
  Feed Intake: 72.5 g/day
  Feed Utilization kg of FI/kg of LW: 1.62 kg of FI/kg of LW
  Live weight End: 1602.0 g
Balhimycin 30 mg/kg of feed
  Feed Intake, compared to the control value of 100%: 100.6%
  Feed Utilization, compared to the control value of 100%: 93.8%
  Live weight End, compared to the control value of 100%: 110.7%
  Live weight Gain, compared to the control value of 100%: 110.8%
  Feed Intake: 75.3 g/day
  Feed Utilization kg of FI/kg of LW: 1.65 kg of FI/kg of LW
  Live weight End: 1640.0 g
Balhimycin 45 mg/kg of feed
  Feed Intake, compared to the control value of 100%: 100.6%
  Feed Utilization, compared to the control value of 100%: 92.0%
  Live weight End, compared to the control value of 100%: 109.1%
  Live weight Gain, compared to the control value of 100%: 109.3%
  Feed Intake: 73.0 g/day
  Feed Utilization kg of FI/kg of LW: 1.62 kg of FI/kg of LW
  Live weight End: 1617.0 g
Balhimycin 60 mg/kg of feed
  Feed Intake, compared to the control value of 100%: 100.7%
  Feed Utilization, compared to the control value of 100%: 93.2%
  Live weight End, compared to the control value of 100%: 108.0%
  Live weight Gain, compared to the control value of 100%: 108.1%
  Feed Intake: 73.1 g/day
  Feed Utilization kg of FI/kg of LW: 1.64 kg of FI/kg of LW
  Live weight End: 1600.0 g
